Converted amounts (≈) assume the structure as drawn.
What was measured:
[1] = tested on: Candida albicans ATCC 11651; assay: In vitro antifungal MIC, microtiter broth dilution; conditions: Candida albicans, ATCC11651, 24 h, read-out: MIC values, C. albicans, 30°, 24 hours
Pythium aphanadermatum = assay: Example J cucumber damping off; assay type: in vivo; conditions: Pythium, 336 h; 5 kg/ha; read-out: disease control rating, Ex. J
Procedure, shortened: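 Seeds and soil were inoculated with a mix of sand, cereal and Pythium aphanadermatum mycelium, the fungus responsible for cucumber damping off. They were kept in a growth chamber at 30° C. for 14 days, and disease was then rated to assess control.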

GREEN FOXTAIL = assay: Test E; assay type: in vivo, Setaria viridis
JET RAPE = assay: Test E; assay type: in vivo, Brassica napus cv. Jet Neuf
Botrytis cinerea = assay: Example C bean grey mold; assay type: in vivo; conditions: Botrytis cinerea, 24 h, 100 PPM; read-out: disease control rating, Ex. C
Procedure, shortened: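 Compound is first dissolved in acetone, the acetone making up 6% of the final volume. The solution is then suspended in purified water with 250 ppm of the polyhydric alcohol ester surfactant TREM 014 to give 100 or 20 ppm. Seedlings of broad bean receive this spray until liquid runs off.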

[2] = tested on: Aspergillus fumigatus ATCC 28214; assay: In vitro antifungal MIC, microtiter broth dilution; conditions: Aspergillus fumigatus, ATCC28214, 24 h, read-out: MIC values, A. fumigatus, 30°, 24 hours
Description: In vitro activity (Table 5) is expressed in terms of the minimal inhibitory concentration (MIC) of the test compound which inhibits the growth of yeasts and fungi.
The target organisms, Candida albicans ATCC 11651 and Aspergillus fumigatus ATCC 28214 are standardized, [V. Bezjak, J. Clinical Micro., 21 509-512 (1984)], to a concentration of 10^7 organisms/ml and maintained at -70° until use. Test compounds are solubilized in dimethyl sulfoxide (DMSO) and diluted in Eagle's Minimum Essential Medium (EMEM) broth to achieve a final concentration of 200 μg/ml. Stock solutions of standard antifungal agents are stored at -70° and diluted in EMEM as required.
The in vitro assay utilizes a microtiter broth dilution technique [L. Polonelli and G. Morace, Mycopathologia, 86, 21-28 (1984)] and C. […] The appropriate wells are inoculated with the required organism (C. albicans at 1×10^4 organisms/ml and A. fumigatus at 5×10^5 organisms/ml) and the assay incubated at 30° for 24 hours.

PARK WHEAT = assay: Test E; assay type: in vivo, Triticum aestivum cv. Park
[3] = tested on: Fusarium oxysporum f. sp. cucumerinum; assay: Example L cucumber wilt; assay type: in vivo; conditions: 336 h, 5 kg/ha, read-out: disease control rating, Ex. L
Description: […] Seeds and soil were then inoculated with a mixture of sand, cereal and mycelium of the fungus Fusarium oxysporum f. sp. cucumerinum, causal agent of cucumber wilt, and incubated in a growth chamber at 30° C. for 14 days. Disease ratings were then made.

CTCHWD BEDSTRAW = assay: Test E; assay type: in vivo, Galium aparine
Venturia inaequalis = assay: Example A apple scab; assay type: in vivo; conditions: 100 PPM, read-out: disease control rating, Ex. A
Procedure, shortened: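 Apple seedlings receive a run-off spray of compound suspended at 100 or 20 ppm. The spray liquid is purified water holding 250 ppm TREM 014, a polyhydric alcohol ester surfactant, plus acetone at 6% of final volume as the solvent.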

WILD RADISH = assay: Test E; assay type: in vivo, Raphanus raphanistrum

Structure (SMILES)	MIC [1]	pest or weed control at 5000 g/ha (Pythium aphanadermatum)	plant response (GREEN FOXTAIL; POSTEMERGENCE 0064 GM/HA)	plant response (GREEN FOXTAIL; POSTEMERGENCE 0125 GM/HA)	plant response (GREEN FOXTAIL; POSTEMERGENCE 0250 GM/HA)	plant response (GREEN FOXTAIL; POSTEMERGENCE 0500 GM/HA)	plant response (JET RAPE; POSTEMERGENCE 0064 GM/HA)	plant response (JET RAPE; POSTEMERGENCE 0125 GM/HA)	plant response (JET RAPE; POSTEMERGENCE 0250 GM/HA)	plant response (JET RAPE; POSTEMERGENCE 0500 GM/HA)	pest or weed control at 100 ppm (Botrytis cinerea)	MIC [2]	plant response (PARK WHEAT; POSTEMERGENCE 0064 GM/HA)	plant response (PARK WHEAT; POSTEMERGENCE 0125 GM/HA)	plant response (PARK WHEAT; POSTEMERGENCE 0250 GM/HA)	plant response (PARK WHEAT; POSTEMERGENCE 0500 GM/HA)	plant response (CTCHWD BEDSTRAW; POSTEMERGENCE 0064 GM/HA)	plant response (CTCHWD BEDSTRAW; POSTEMERGENCE 0125 GM/HA)	plant response (CTCHWD BEDSTRAW; POSTEMERGENCE 0250 GM/HA)	plant response (CTCHWD BEDSTRAW; POSTEMERGENCE 0500 GM/HA)	further results
C=C(c1ccccc1)C(O)(Cn1cncn1)c1ccc(F)cc1F (stereo not shown) [Example 52, 2-(2,4-Difluorophenyl)-3-phenyl-1-(1H-1,2,4-triazol-1-yl)-3-buten-2-ol]	0.03 µg/mL (≈ 0.0916 µM)	0%	0%	0%	40%	75%	0%	0%	20%	40%	95%	0.4 µg/mL (≈ 1.22 µM)	30%	30%	40%	50%	20%	80%	70%	100%	plant response (GREEN FOXTAIL; PREEMERGENCE 0250 GM/HA): 100%; plant response (JET RAPE; PREEMERGENCE 0250 GM/HA): 20%; plant response (PARK WHEAT; PREEMERGENCE 0250 GM/HA): 70%; pest or weed control at 5000 g/ha [3]: 0%; plant response (CTCHWD BEDSTRAW; PREEMERGENCE 0250 GM/HA): 100%; pest or weed control at 100 ppm (Venturia inaequalis): 100%; plant response (WILD RADISH; POSTEMERGENCE 0064 GM/HA): 10%; plant response (WILD RADISH; POSTEMERGENCE 0125 GM/HA): 10%; plant response (WILD RADISH; POSTEMERGENCE 0250 GM/HA): 50%; plant response (WILD RADISH; POSTEMERGENCE 0500 GM/HA): 80%; plant response (WILD RADISH; PREEMERGENCE 0250 GM/HA): 50%
C=C(c1ccc(F)cc1)C(O)(Cn1cncn1)c1ccccc1F (stereo not shown) [Example 644]	0.03 µg/mL (≈ 0.0916 µM)	0%	30%	30%	50%	50%	0%	0%	0%	30%	94%	0.4 µg/mL (≈ 1.22 µM)	0%	20%	30%	40%	0%	30%	30%	30%	plant response (GREEN FOXTAIL; PREEMERGENCE 0500 GM/HA): 100%; plant response (JET RAPE; PREEMERGENCE 0500 GM/HA): 20%; plant response (PARK WHEAT; PREEMERGENCE 0500 GM/HA): 30%; plant response (CTCHWD BEDSTRAW; PREEMERGENCE 0500 GM/HA): 0%; pest or weed control at 100 ppm (Venturia inaequalis): 100%; plant response (WILD RADISH; POSTEMERGENCE 0064 GM/HA): 20%; plant response (WILD RADISH; POSTEMERGENCE 0125 GM/HA): 30%; plant response (WILD RADISH; POSTEMERGENCE 0250 GM/HA): 50%; plant response (WILD RADISH; POSTEMERGENCE 0500 GM/HA): 80%; plant response (WILD RADISH; PREEMERGENCE 0500 GM/HA): 0%

Reference: patent US4965280A, “Antifungal carbinols” (E. I. Du Pont de Nemours and Company, priority 1989, dated 1990)
